The structures appear in SMILES notation. Where two headings read alike, the source gives them in different places.

Experiment in all cases: Kinase panel profiling at 1 µmol/L (MSA or IMAP), percentage inhibition
Assay type in all cases: biochemical

In assay [1] the target is panel of 255 wild-type kinases (Homo sapiens, UniProt P31749). The note with it: read-out: %-inhibition AKT1.
Assay [2] concerns the target panel of 255 wild-type kinases (Homo sapiens, UniProt P48729). The note with it: read-out: %-inhibition at 1 µmol/L, CK1α.
The target of assay [3] is panel of 255 wild-type kinases (Homo sapiens, UniProt P23443). The note with it: read-out: %-inhibition, p70S6K.
For assay [4], the target named is panel of 255 wild-type kinases (Homo sapiens, UniProt P14616). The note with it: read-out: %-inhibition at 1 µmol/L, IRR.
In assay [5] the target is T1, panel of 255 wild-type kinases (Homo sapiens, UniProt Q96KB5).
T1 sequence (Q96KB5 1-322): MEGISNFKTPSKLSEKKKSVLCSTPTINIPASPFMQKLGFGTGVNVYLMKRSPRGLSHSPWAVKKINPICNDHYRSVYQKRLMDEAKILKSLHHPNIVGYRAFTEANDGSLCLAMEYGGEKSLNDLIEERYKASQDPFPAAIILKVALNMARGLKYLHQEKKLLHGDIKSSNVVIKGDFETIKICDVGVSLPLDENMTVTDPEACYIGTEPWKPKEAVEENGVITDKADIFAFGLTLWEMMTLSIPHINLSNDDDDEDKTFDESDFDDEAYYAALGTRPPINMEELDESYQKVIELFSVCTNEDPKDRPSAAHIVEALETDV
Particulars: read-out: %-inhibition at 1 µmol/L, PBK.

Assay [6] has as its target panel of 255 wild-type kinases (Homo sapiens, UniProt Q15303). The note with it: read-out: %-inhibition at 1 µmol/L, HER4.
The target of assay [7] is panel of 255 wild-type kinases (Homo sapiens, UniProt P22455). The note with it: read-out: %-inhibition at 1 µmol/L, FGFR4.
The target of assay [8] is panel of 255 wild-type kinases (Homo sapiens, UniProt P43405). The note with it: read-out: %-inhibition at 1 µmol/L, SYK.
Assay [9] addresses panel of 255 wild-type kinases (Homo sapiens, UniProt Q9UQM7). Particulars: read-out: %-inhibition CaMK2α.
For assay [10], the target named is panel of 255 wild-type kinases (Homo sapiens, UniProt Q15759). The note with it: read-out: %-inhibition, p38β.
For assay [11], the target named is T2, panel of 255 wild-type kinases (Homo sapiens, UniProt Q9NRM7).
T2 sequence (Q9NRM7 1-1088): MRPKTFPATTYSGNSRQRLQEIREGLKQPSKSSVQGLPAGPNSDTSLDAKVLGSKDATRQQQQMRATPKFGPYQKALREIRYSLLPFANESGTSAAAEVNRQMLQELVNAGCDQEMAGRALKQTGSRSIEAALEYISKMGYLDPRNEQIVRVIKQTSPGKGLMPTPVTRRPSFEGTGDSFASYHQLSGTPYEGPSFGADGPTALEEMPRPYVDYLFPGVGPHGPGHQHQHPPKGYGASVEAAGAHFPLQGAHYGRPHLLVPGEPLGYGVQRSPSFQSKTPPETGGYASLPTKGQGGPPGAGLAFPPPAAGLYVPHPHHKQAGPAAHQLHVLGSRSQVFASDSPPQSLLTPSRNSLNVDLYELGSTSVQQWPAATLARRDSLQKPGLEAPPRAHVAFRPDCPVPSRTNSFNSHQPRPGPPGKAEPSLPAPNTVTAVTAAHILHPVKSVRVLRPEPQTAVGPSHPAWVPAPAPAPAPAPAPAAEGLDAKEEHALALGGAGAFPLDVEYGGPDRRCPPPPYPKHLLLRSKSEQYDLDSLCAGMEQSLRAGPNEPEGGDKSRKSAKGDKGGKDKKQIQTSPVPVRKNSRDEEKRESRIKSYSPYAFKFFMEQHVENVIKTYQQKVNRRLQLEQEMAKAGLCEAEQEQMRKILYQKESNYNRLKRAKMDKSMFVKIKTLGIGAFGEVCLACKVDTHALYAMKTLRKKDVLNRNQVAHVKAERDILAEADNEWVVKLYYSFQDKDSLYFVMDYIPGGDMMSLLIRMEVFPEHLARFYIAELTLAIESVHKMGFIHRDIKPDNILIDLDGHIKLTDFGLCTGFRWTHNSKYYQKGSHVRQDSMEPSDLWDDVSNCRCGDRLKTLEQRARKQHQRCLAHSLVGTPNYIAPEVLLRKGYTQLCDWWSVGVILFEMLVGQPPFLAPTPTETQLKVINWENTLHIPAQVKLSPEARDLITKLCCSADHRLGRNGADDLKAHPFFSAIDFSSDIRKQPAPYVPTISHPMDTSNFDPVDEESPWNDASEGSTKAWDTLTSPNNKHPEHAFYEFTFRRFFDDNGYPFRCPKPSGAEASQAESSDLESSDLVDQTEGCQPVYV
Particulars: read-out: %-inhibition at 1 µmol/L, LATS2.

Assay [12] concerns the target panel of 255 wild-type kinases (Homo sapiens, UniProt Q05655). Particulars: read-out: %-inhibition at 1 µmol/L, PKCδ.
The target of assay [13] is panel of 255 wild-type kinases (Homo sapiens, UniProt Q9Y3S1). Particulars: read-out: %-inhibition at 1 µmol/L, WNK2.
Assay [14] concerns the target panel of 255 wild-type kinases (Homo sapiens, UniProt P21802). Particulars: read-out: %-inhibition at 1 µmol/L, FGFR2.
The target of assay [15] is panel of 255 wild-type kinases (Homo sapiens, UniProt Q8IY84). Particulars: read-out: %-inhibition, NIM1K.
The mark [16] stands for this setting: AKT1 kinase assay, 1 µmol/L single concentration.
Where [17] appears, read: kinase CK1α, 1 µmol/L single concentration.
Where [18] appears, read: p70S6K, 1 µmol/L single concentration.
[19] abbreviates: kinase IRR, 1 µmol/L single concentration.
The mark [20] stands for this setting: kinase PBK, 1 µmol/L single concentration.
The mark [21] stands for this setting: kinase HER4, 1 µmol/L single concentration.
Setting [22] is: kinase FGFR4, 1 µmol/L single concentration.
Setting [23] is: kinase SYK, 1 µmol/L single concentration.
Where [24] appears, read: CaMK2α kinase assay, 1 µmol/L single concentration.
Setting [25] is: p38β, 1 µmol/L single concentration.
The mark [26] stands for this setting: kinase LATS2, 1 µmol/L single concentration.
Setting [27] is: kinase PKCδ, 1 µmol/L single concentration.
Where [28] appears, read: kinase WNK2, 1 µmol/L single concentration.
[29] abbreviates: kinase FGFR2, 1 µmol/L single concentration.
The mark [30] stands for this setting: NIM1K, 1 µmol/L single concentration.

As to `Cc1nc(NC(=O)N2CCC[C@H]2C(N)=O)sc1-c1ccnc(C(C)(C)C(F)(F)F)c1` [alpelisib], the inhibition at 1 µM in [1] (setting [16]) was -6.35%; in [2] (setting [17]) it was -14%; in [3] (setting [18]) it was 9%; in assay [4] (setting [19]) it was 7%; in assay [5] (setting [20]), -1.24%; in [6] (setting [21]) it was 2%. Besides, the inhibition at 1 µM in assay [7] (setting [22]) was 9%; in assay [8] (setting [23]), -23%; in assay [9] (setting [24]), -1.21%; in assay [10] (setting [25]), 1%; in assay [11] (setting [26]) it was -1%; in assay [12] (setting [27]), -7.56%. Further, the figures for the inhibition at 1 µM in assay [13] (setting [28]), in assay [14] (setting [29]) and in assay [15] (setting [30]) were -3.36%, 7% and -1.81%, respectively.
Consider `Cn1cc(-c2cc3c(N4CCN(c5ncc([C@@](C)(N)c6ccc(F)cc6)cn5)CC4)ncnn3c2)cn1` [avapritinib], for which the inhibition at 1 µM in assay [1] (setting [16]) is -9%; in [2] (setting [17]) it was 5%; in assay [3] (setting [18]), 20%; in assay [4] (setting [19]), 2.37%; in assay [5] (setting [20]), -3%; in assay [6] (setting [21]), 25%. Also, the inhibition at 1 µM in assay [7] (setting [22]) is 41%; in [8] it was 44%; in [9] (setting [24]), -2.45%; in [10] (setting [25]), -2.41%; in assay [11] (setting [26]), 1.47%; in assay [12] (setting [27]) it was 5%. Also, the inhibition at 1 µM was 0.928% in assay [13] (setting [28]), 62% in assay [14] (setting [29]) and 0.427% in assay [15] (setting [30]).
`Cn1cnc2c(F)c(Nc3ccc(Br)cc3F)c(C(=O)NOCCO)cc21` [binimetinib]: the inhibition at 1 µM in [1] (setting [16]) was -5%; in assay [2] (setting [17]), 9%; in assay [3] (setting [18]), 4.72%; in assay [4] (setting [19]), -5.48%; in assay [5] (setting [20]), 0.203%; in assay [6] (setting [21]), 11%. Further, the inhibition at 1 µM was 4.66% in assay [7] (setting [22]); -19% in assay [8] (setting [23]); -4.55% in assay [9] (setting [24]); 0.0465% in assay [10] (setting [25]); -3% in [11] (setting [26]); -9% in assay [12] (setting [27]). For the same compound, the inhibition at 1 µM in assay [13] (setting [28]) was -2.48%; in assay [14] (setting [29]), 4.56%; in assay [15] (setting [30]), -2.23%.
For `CNC(=O)c1ccc(-c2cnc3ncc(Cc4ccc5ncccc5c4)n3n2)cc1F` [capmatinib], the inhibition at 1 µM in [1] was -10%; in assay [2] it was -5.42%; in assay [3], 5.68%; in [4], 4%; in assay [5], -4%; in assay [6], 21%. Also, the inhibition at 1 µM in [7] is 8%; in assay [8], 2.11%; in [9], -0.603%; in assay [10], -2.57%; in assay [11], -7%; in [12] it was -10%. Also, the results for the inhibition at 1 µM in assay [13], in assay [14] and in assay [15] were -2.3%, 7% and -2%, respectively.
Regarding `CN1CCN(c2ccc(C(=O)Nc3n[nH]c4ccc(Cc5cc(F)cc(F)c5)cc34)c(NC3CCOCC3)c2)CC1` [entrectinib], the inhibition at 1 µM in [1] (setting [16]) was -9%; in assay [3] (setting [18]), 25%; in assay [4] (setting [19]), 100%; in assay [5] (setting [20]) it was -5.43%; in assay [6] (setting [21]) it was 32%; in assay [7] (setting [22]) it was 38%. Further, the inhibition at 1 µM in assay [8] (setting [23]) was -5.27%; in assay [9] (setting [24]), 12%; in assay [10] (setting [25]), 7.47%; in assay [11] (setting [26]), 18%; in assay [12] (setting [27]) it was 8%; in assay [13] (setting [28]) it was 2.24%. Besides, the inhibition at 1 µM in assay [14] (setting [29]) is 97%; in assay [15] (setting [30]), -1.5%.
`CCN1CCN(c2ccc(Nc3cc(N(C)C(=O)Nc4c(Cl)c(OC)cc(OC)c4Cl)ncn3)cc2)CC1` [infigratinib]: the inhibition at 1 µM was -12% in assay [1] (setting [16]); -7.38% in assay [2] (setting [17]); 5.33% in [3] (setting [18]); 34% in assay [4] (setting [19]); -1.71% in [5] (setting [20]); 26% in [6] (setting [21]). For the same compound, the inhibition at 1 µM in assay [8] (setting [23]) was -17%; in assay [9] (setting [24]), -1.22%; in [10] (setting [25]), -1.57%; in assay [11] (setting [26]), -3.67%; in assay [12] (setting [27]) it was -3%; in assay [13] (setting [28]) it was 1%. For the same compound, the inhibition at 1 µM in [15] (setting [30]) is -2.7%.
Consider `CCN1C(=O)N(c2c(F)c(OC)cc(OC)c2F)Cc2cnc3[nH]c(CN4CCOCC4)cc3c21` [pemigatinib], for which the inhibition at 1 µM in [1] (setting [16]) is -12%; in assay [2] (setting [17]) it was 2.22%; in [3] (setting [18]), -0.418%; in assay [4] (setting [19]), 8%; in assay [5] (setting [20]) it was -5.57%; in assay [6] (setting [21]), 5%. In addition, the inhibition at 1 µM in assay [7] (setting [22]) was 100%; in assay [8] (setting [23]), -4.26%; in assay [9] (setting [24]), 5%; in assay [10] (setting [25]), 6%; in assay [11] (setting [26]), -3%; in [12] (setting [27]) it was 0.471%. The inhibition at 1 µM is -1.88% in assay [13] (setting [28]) and -1.5% in assay [15] (setting [30]).
